Measured values reported in US12209145B2, “PCSK9 antagonist compounds” (Merck Sharp & Dohme LLC, priority 2018, dated 2025).

Columns and labels:
Format in all cases: binding
PCSK9 [1] = molecular target: T1, PCSK9 (Homo sapiens, UniProt Q8NBP7); test: PCSK9 Alexa FRET Standard TR-FRET assay (displacement of AlexaFluor647 tagged cyclic peptide Reagent A)
T1 construct: Biotinylated PCSK9 was obtained commercially; purchased
Description: The following is a description of the assays used to determine activity of compounds of the invention, and any comparator compounds reported, toward PCSK9 antagonism. Biotinylated PCSK9 was obtained commercially.
Alexa FRET Standard TR-FRET
A solution containing 1 nM biotinylated PCSK9+2.5 nM Lance Streptavidin Europium (Strep-Eu) is made in 50 mM HEPES pH 7.4, 0.15 M NaCl, 5 mM CaCl2, 0.01% BSA, and 0.01% Surfactant P20. A separate solution containing 40 nM of the AlexaFluor tagged cyclic peptide is made in the same buffer system. An Echo is used to transfer 0.750 ul of compound to an assay plate followed by the addition of 15 ul of PCSK9+Stept-Eu and 15 ul of AF peptide. The final assay volume is 30.750 ul containing 0.5 nM PCSK9, 1.25 nM Strep-Eu, and 20 nM AF cyclic peptide. The reaction is incubated at room temperature for at least two hours prior to fluorescence measurements using an Envision Multilabel Reader. […] values are determined by fitting data to a sigmoidal dose-response curve using nonlinear regression. Ki is then calculated from the IC50 and the KD of AF cyclic peptide. Counts (B-counts) of the europium-labeled PCSK9 are followed to observe if compounds are adversely PCSK9. A fall off of the B-counts likely indicates a false positive of inhibition. Data from this procedure is reported as “A=‘numerical value’ (nanomolar)”
Activity data obtained by one or both of the above-described procedures is reported for selected example compounds of the invention in the following format: Example No.: A (standard TR Fret)=‘numerical value’; P (Alexa Fret plus standard TR Fret)=‘numerical value’/, note that all values reported are nanomolar.

PCSK9 [2] = molecular target: T1, PCSK9; test: PCSK9 Alexa FRET Plus TR-FRET assay (displacement of AlexaFluor647 tagged cyclic peptide Reagent B); settings: Ki Plus, 0.5 nM biotinylated PCSK9, 960 nM AF cyclic peptide Reagent B; Ki calculated from IC50 and KD of AF peptide
Method in brief: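 TR-FRET displacement using 0.5 nM biotinylated PCSK9 with 1.25 nM streptavidin-Eu and 960 nM AlexaFluor-tagged cyclic peptide in pH 7.4 HEPES with CaCl2, at least 2 h at RT. IC50 from sigmoidal fit, converted to Ki using the peptide KD; falling Eu counts flag false positives.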

PCSK9 [3] = molecular target: T1, PCSK9; test: PCSK9 Alexa FRET Ultra TR-FRET assay (displacement of AlexaFluor647 tagged cyclic peptide); settings: Ki Ultra, 0.5 nM biotinylated PCSK9, 960 nM AF cyclic peptide; Ki calculated from IC50 and KD of AF peptide
Method in brief: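 Biotinylated PCSK9 (0.5 nM final) with 1.25 nM Strep-Eu and 960 nM AlexaFluor-tagged cyclic peptide in HEPES pH 7.4, NaCl, CaCl2, BSA, P20; ≥2 h at room temperature. IC50 from sigmoidal fit, converted to Ki (nM) using peptide KD; falling Eu counts flag false positives.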

T1 sequence (Q8NBP7 153-692): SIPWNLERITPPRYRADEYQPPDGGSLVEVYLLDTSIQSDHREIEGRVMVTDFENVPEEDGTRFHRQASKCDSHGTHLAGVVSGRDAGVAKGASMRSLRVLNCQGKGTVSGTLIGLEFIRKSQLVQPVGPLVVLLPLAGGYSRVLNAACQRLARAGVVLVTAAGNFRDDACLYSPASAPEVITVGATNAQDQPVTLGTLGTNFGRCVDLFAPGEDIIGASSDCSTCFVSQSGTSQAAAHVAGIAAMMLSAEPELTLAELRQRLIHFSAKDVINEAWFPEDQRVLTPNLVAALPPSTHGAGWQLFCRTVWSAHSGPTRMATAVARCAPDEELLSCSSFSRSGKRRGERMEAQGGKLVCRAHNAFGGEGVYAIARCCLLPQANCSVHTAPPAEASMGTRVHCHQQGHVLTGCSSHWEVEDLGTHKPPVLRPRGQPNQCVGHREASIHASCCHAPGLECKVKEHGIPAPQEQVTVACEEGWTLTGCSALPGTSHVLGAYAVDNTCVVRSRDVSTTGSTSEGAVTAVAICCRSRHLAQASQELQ

Structure (SMILES)	Ki (PCSK9 [1]) [nM]	Ki (PCSK9 [2]) [nM]	Ki (PCSK9 [3]) [nM]
COc1ccc(C[C@@H]2NC(=O)[C@H]([C@@H](C)O)NC(=O)[C@@H]3[C@@H]4CCN3C(=O)[C@@H]3Cc5cn(c6ccc(F)cc56)CCCCCCN(Cc5ccc(cc5)CCNC(=O)[C@]5(C)CCCN5C2=O)C(=O)CCC(=O)N[C@@H](C)C(=O)N[C@H](CNC(=O)CCOCCOCCCN(C)C)C(=O)N[C@@H](Cc2cccc(c2)CNC(=O)CO4)C(=O)N3)cc1 [Ex-50]	< 1.26	0.0105	0.00443
COc1ccc(C[C@@H]2NC(=O)[C@H]([C@@H](C)O)NC(=O)[C@@H]3[C@@H]4CCN3C(=O)[C@@H]3Cc5cn(c6ccc(F)cc56)C/C=C/CCCN(Cc5ccc(cc5)CCNC(=O)[C@]5(C)CCCN5C2=O)C(=O)CCC(=O)N[C@@H](C)C(=O)N[C@H](CN)C(=O)N[C@@H](Cc2cccc(c2)CNC(=O)CO4)C(=O)N3)cc1 [Ex-51]	< 1.26	< 0.00558	0.00597
COc1ccc(C[C@@H]2NC(=O)[C@H]([C@@H](C)O)NC(=O)[C@@H]3[C@@H]4CCN3C(=O)[C@@H]3Cc5cn(c6ccc(F)cc56)C/C=C/CCCN(Cc5ccc(cc5)CCNC(=O)[C@]5(C)CCCN5C2=O)C(=O)CCC(=O)N[C@@H](C)C(=O)N[C@H](CNC(=O)CCOCCOCC[N+](C)(C)C)C(=O)N[C@@H](Cc2cccc(c2)CNC(=O)CO4)C(=O)N3)cc1 [Ex-52]	< 1.26	< 0.00558	0.00359
COc1ccc(C[C@@H]2NC(=O)[C@H]([C@@H](C)O)NC(=O)[C@@H]3[C@@H]4CCN3C(=O)[C@@H]3Cc5cn(c6ccc(F)cc56)C/C=C/COc5cc(ccc5CNC(=O)CCC(=O)N[C@@H](C)C(=O)N[C@H](CN)C(=O)N[C@@H](Cc5cccc(c5)CNC(=O)CO4)C(=O)N3)CCNC(=O)[C@]3(C)CCCN3C2=O)cc1 [Ex-53]	< 1.26	0.0963	0.215
COc1ccc(C[C@@H]2NC(=O)[C@H]([C@@H](C)O)NC(=O)[C@@H]3[C@@H]4CCN3C(=O)[C@@H]3Cc5cn(c6ccc(F)cc56)CCCCOc5cc(ccc5CNC(=O)CCC(=O)N[C@@H](C)C(=O)N[C@H](CN)C(=O)N[C@@H](Cc5cccc(c5)CNC(=O)CO4)C(=O)N3)CCNC(=O)[C@]3(C)CCCN3C2=O)cc1 [Ex-54]	< 1.26	0.367	0.484
COc1ccc(C[C@@H]2NC(=O)[C@H]([C@@H](C)O)NC(=O)[C@@H]3[C@@H]4CCN3C(=O)[C@@H]3Cc5cn(c6ccc(F)cc56)CCCCOc5cc(ccc5CNC(=O)CCC(=O)N[C@@H](C)C(=O)N[C@H](CNC(=O)CCOCCOCC[N+](C)(C)C)C(=O)N[C@@H](Cc5cccc(c5)CNC(=O)CO4)C(=O)N3)CCNC(=O)[C@]3(C)CCCN3C2=O)cc1 [Ex-55]	< 1.26	0.0724	0.238
COc1ccc(C[C@@H]2NC(=O)[C@H]([C@@H](C)O)NC(=O)[C@@H]3[C@@H]4CCN3C(=O)[C@@H]3Cc5cn(c6ccc(F)cc56)CCCCCCN(Cc5ccc(cc5)CCNC(=O)[C@]5(C)CCCN5C2=O)C(=O)CCC(=O)N[C@@H](C)C(=O)N[C@H](CNC(=O)Cc2cccc(OCCC[N+](C)(C)C)c2)C(=O)N[C@@H](Cc2cccc(c2)CNC(=O)CO4)C(=O)N3)cc1 [Ex-56]	< 1.26	0.0224	0.00481
COCCC[N+](C)(C)CCCCCC(=O)NC[C@H]1NC(=O)[C@H](C)NC(=O)CCC(=O)N2CCCCCCn3cc(c4cc(F)ccc43)C[C@@H]3NC(=O)[C@H](Cc4cccc(c4)CNC(=O)CO[C@H]4CCN(C3=O)[C@@H]4C(=O)N[C@@H]([C@@H](C)O)C(=O)N[C@@H](Cc3ccc(OC)cc3)C(=O)N3CCC[C@@]3(C)C(=O)NCCc3ccc(cc3)C2)NC1=O [Ex-57]	< 1.26	< 0.00558	0.00162
COCC[N+](C)(C)CCCCCC(=O)NC[C@H]1NC(=O)[C@H](C)NC(=O)CCC(=O)N2CCCCCCn3cc(c4cc(F)ccc43)C[C@@H]3NC(=O)[C@H](Cc4cccc(c4)CNC(=O)CO[C@H]4CCN(C3=O)[C@@H]4C(=O)N[C@@H]([C@@H](C)O)C(=O)N[C@@H](Cc3ccc(OC)cc3)C(=O)N3CCC[C@@]3(C)C(=O)NCCc3ccc(cc3)C2)NC1=O [Ex-58]	< 1.26	0.00773	0.00196
